Reference: US20220062296A1, “COMBINATIONS OF GABAA ALPHA 5 AGONISTS AND SV2A INHIBITORS AND METHODS OF USING IN THE TREATMENT OF COGNITIVE IMPAIRMENT” (AGENEBIO, INC., priority 2020, published 2022)

How the values were obtained:
aged-impaired (AI) rats = test: Radial Arm Maze (RAM) task with one-hour delay, levetiracetam; assay type: in vivo, rat; details: for effective in reducing the number of errors in the radial arm maze: levetiracetam on its own
Procedure: The effects of levetiracetam on the spatial memory retention of aged-impaired (AI) rats were assessed in a Radial Arm Maze (RAM) behavioral task using vehicle control and five different dosage levels of levetiracetam (1.25 mg/kg/day, 2.5 mg/kg/day, 5 mg/kg/day, 10 mg/kg/day and 20 mg/kg/day). RAM behavioral tasks were performed on ten AI rats. All six treatment conditions were tested on all ten rats, as described above for the MWM test. The RAM apparatus used consisted of eight equidistantly spaced arms. An elevated maze arm (7 cm width×75 cm length) projected from each facet of an octagonal center platform (30 cm diameter, 51.5 cm height). […] A food well (4 cm diameter, 2 cm deep) was located at the distal end of each arm. Froot Loops™ (Kellogg Company) were used as rewards. […] Numerous extra maze cues surrounding the apparatus were also provided. The AI rats were initially subjected to a pre-training test (Chappell et al. Neuropharmacology 37: 481-487, 1998). […] In the habituation phase, rats were familiarized to the maze for an 8-minute session on four consecutive days. In each of these sessions food rewards were scattered on the RAM, initially on the center platform and arms and then progressively confined to the arms. After this habituation phase, a standard training protocol was used, in which a food pellet was located at the end of each arm. Rats received one trial each day for 18 days. Each daily trial terminated when all eight food pellets had been obtained or when either 16 choices were made or 15 minutes had elapsed. After completion of this training phase, a second training phase was carried out in which the memory demand was increased by imposing a brief delay during the trial. At the beginning of each trial, three arms of the eight-arm maze were blocked. Rats were allowed to obtain food on the five arms to which access was permitted during this initial ‘information phase’ of the trial. Rats were then removed from the maze for 60 seconds, during which time the barriers on the maze were removed, thus allowing access to all eight arms. Rats were then placed back onto the center platform and allowed to obtain the remaining food rewards during this ‘retention test’ phase of the trial. The identity and configuration of the blocked arms varied across trials. The number of “errors” the AI rats made during the retention test phase was tracked. An error occurred in the trial if the rats entered an arm from which food had already been retrieved in the pre-delay component of the trial, or if it re-visited an arm in the post-delay session that had already been visited. After completion of the pre-training test, rats were subjected to trials with more extended delay intervals, i.e., a one-hour delay, between the information phase (presentation with some blocked arms) and the retention test (presentation of all arms). During the delay interval, rats remained off to the side of the maze in the testing room, on carts in their individual home cages. […] Injections were given every other day with intervening washout days. Each AI rat was treated with all six conditions within 23 days of testing. To counterbalance any potential bias, drug effect was assessed using ascending-descending dose series, i.e., the dose series was given first in an ascending order and then repeated in a descending order. Therefore, each dose had two determinations. Parametric statistics (paired t-tests) was used to compare the retention test performance of the AI rats in the one-hour delay version of the RAM task in the context of different doses of levetiracetam and vehicle control (see FIG. 3).

DG/CA3 of aMCI subjects = test: fMRI activity in DG/CA3 during explicit 3-alternative forced choice task; assay type: in vivo, human; details: for DG/CA3 hyperactivity: two weeks
aMCI subjects = test: Neuropsychological tests (Buschke Selective Reminding, Benton Visual Retention, Verbal Paired Associates); assay type: in vivo, human; details: levetiracetam 125 mg twice a day for two weeks
Text: All participants undergo neuropsychological evaluation at the time of assessment for treatment efficacy (Visits 1 and 2), as well as at the Baseline Visit. The evaluation occurs outside of the scanner and includes the Buschke Selective Reminding Test (Buschke and Fuld, 1974) and the Verbal Paired Associates subtest, the Logical Memory subtest, the Visual Reproduction subtest of the Wechsler Memory Scale-Revised (WMS-R) (Wechsler, 1997), and the Benton Visual Retention Test, as these tasks are particularly sensitive to medial temporal lobe function and early memory problems (Marquis et al., 2002 and Masur et al., 1994). Additionally, subjects are asked to complete tests of more general cognitive function such as tests to assess general mental status, executive function, attention and general naming ability. All neuropsychological tests are administered by a trained research assistant during a 60-minute session. As the three neuropsychological assessments in this study occur within a time period of 8 weeks, different versions of the neuropsychological tests are used to minimize test specific practice effects. Breaks are provided to the subject as needed.

[1] = Levetiracetam blood plasma levels in aMCI patients; assay type: in vivo; details: human, oral, based on aMCI patients, read-out: effective plasma level range (preferred range goal)
Text: Visit 1: At the end of the first drug/placebo period 2 weeks after the Baseline Visit, the medical, neurological and psychiatric evaluations and cognitive testing are repeated. The subject is also clinically evaluated for suicidal ideation. Blood is drawn again to repeat the standard tests and to determine whether there are any changes related to drug treatment; the subject's blood levetiracetam level is also obtained. All medication dispensed at the Baseline Visit (drug or placebo) is collected and subject compliance with the medication regimen is assessed. The first fMRI session (with cognitive tests) is conducted on the same day, either immediately before or immediately after the clinical assessment. Subjects discontinue first period treatment at this visit.
Visit 2: At approximately 2 weeks after the Washout Visit (i.e., 2 weeks after starting the second treatment period), the medical, neurological and psychiatric evaluations and the cognitive testing are repeated. The subject is clinically evaluated for suicidal ideation. […] All medication dispensed at the Washout Visit is collected and subject compliance with the medication regimen is assessed. […]
Human – in the human studies described in Examples 2 and 3, a subject's levetiracetam blood plasma level was assessed at each visit. […]

Structure (SMILES): CC[C@@H](C(N)=O)N1CCCC1=O [levetiracetam, (2S)-2-(2-oxopyrrolidin-1-yl)butanamide]
- effective doses of levetiracetam in the animal model (aged-impaired (AI) rats; AI rats): 5 to 10 mg/kg
- average no. of errors ± standard error of the mean (SEM) (aged-impaired (AI) rats; levetiracetam 5 mg/kg/day i.p., one-hour delay, p=0.057 vs vehicle): 0.75±0.32
- average no. of errors ± SEM (aged-impaired (AI) rats; levetiracetam 10 mg/kg/day i.p., one-hour delay, p=0.042 vs vehicle): 0.80±0.27
- performance of AI rats in the radial maze task (aged-impaired (AI) rats; levetiracetam 20 mg/kg): fails to improve the performance
- effective in reducing the number of errors in the radial arm maze (aged-impaired (AI) rats; 1.25 mg/kg): not at 1.25 mg/kg or 2.5 mg/kg
- effective in reducing the number of errors in the radial arm maze (aged-impaired (AI) rats; 2.5 mg/kg): not at 1.25 mg/kg or 2.5 mg/kg
- DG/CA3 hyperactivity (DG/CA3 of aMCI subjects; levetiracetam 62.5 mg BID cohort): does not significantly reduce
- DG/CA3 activity during lure stimuli correctly identified as similar (DG/CA3 of aMCI subjects; levetiracetam 125 mg twice a day for two weeks, vs placebo, p=0.037): reduces DG/CA3 hyper-activity
- DG/CA3 hyperactivity (DG/CA3 of aMCI subjects; levetiracetam 250 mg BID cohort): does not significantly reduce
- Benton Visual Retention Test performance (aMCI subjects): fail to rescue performance
- Buschke Selective Reminding Test-Delayed Recall performance (aMCI subjects): fail to rescue performance
- Verbal Paired Associates Test-Delayed Recall performance (aMCI subjects): fail to rescue performance
- Verbal Paired Associates Test-Recognition performance (aMCI subjects): fail to rescue performance
- concentration at 2 weeks [1]: 2900 to 4400 ng/mL
